Reference: article PMC11550483 (2024)

The molecules below were run against SARS2 M^pro (Severe acute respiratory syndrome coronavirus 2, UniProt P0DTD1, P3395H).
Format: biochemical, SARS-CoV-2

Structure (SMILES)	% inhibition (20 µM) biochemical
CC(=O)C1=C(O)C(=O)N(c2ccc(Br)cn2)C1c1ccc(Cl)cc1 (centres unmarked) [MWAC-0001809, CC(=O)C1=C(O)C(=O)N(C1c2ccc(Cl)cc2)c3ccc(Br)cn3]	16%
O=[N+]([O-])c1cc(C(F)(F)F)ccc1NCCNS(=O)(=O)Cc1ccccc1 [MWAC-0001800, [O-][N+](=O)c1cc(ccc1NCCNS(=O)(=O)Cc2ccccc2)C(F)(F)F]	3.51%
Cc1ccccc1C(=O)Nc1ccc(Br)cc1 [MWAC-0001804, Cc1ccccc1C(=O)Nc2ccc(Br)cc2]	2.44%
O=C1/C(=C/c2cccnc2)SC(=S)N1Cc1cccnc1 [MWAC-0001816, O=C1N(Cc2cccnc2)C(=S)S/C/1=C\c3cccnc3]	43%
COc1cc(CSc2nnc[nH]2)c(OC)cc1CSc1nnc[nH]1 [MWAC-0001824, COc1cc(CSc2nnc[nH]2)c(OC)cc1CSc3nnc[nH]3]	0%
O=C1NC(=O)C(=Cc2cc(O)ccc2Br)C(=O)N1 [MWAC-0001754, Oc1ccc(Br)c(C=C2C(=O)NC(=O)NC2=O)c1]	21%
COc1ccc(C=O)cc1OS(=O)(=O)c1ccc(C)cc1 [MWAC-0001771, COc1ccc(C=O)cc1OS(=O)(=O)c2ccc(C)cc2]	3.71%
Cc1cccc(/N=C2/NC(=O)/C(=C\c3ccc(N(C)C)cc3)S2)c1 [MWAC-0001734, CN(C)c1ccc(\C=C/2\S\C(=N/c3cccc(C)c3)\NC2=O)cc1]	9%
CCOc1ccc2nc(NC(=O)C3CC3)sc2c1 [MWAC-0001795, CCOc1ccc2nc(NC(=O)C3CC3)sc2c1]	8%
O=S(=O)(O)CCCN1/C(=C/C=C2\CCC(/C=C/c3sc4ccccc4[n+]3CCCS(=O)(=O)O)=C2N(c2ccccc2)c2ccccc2)Sc2ccccc21 [MWAC-0001204, OS(=O)(=O)CCCN1\C(=C\C=C\2/CCC(=C2N(c3ccccc3)c4ccccc4)\C=C\c5sc6ccccc6[n+]5CCCS(=O)(=O)O)\Sc7ccccc17]	8%
CC(C)(C)N1C(=O)c2ccc(C(=O)Nc3cccc(O)c3)cc2C1=O [MWAC-0001722, CC(C)(C)N1C(=O)c2ccc(cc2C1=O)C(=O)Nc3cccc(O)c3]	5.66%
Cc1cc(C(=O)CCl)c(C)n1CCc1cccs1 [MWAC-0001825, Cc1cc(C(=O)CCl)c(C)n1CCc2cccs2]	56%
COc1ccc(OC)c(NC(=O)CSc2nc3cc4c(cc3cc2C#N)OCCO4)c1 [MWAC-0001834, COc1ccc(OC)c(NC(=O)CSc2nc3cc4OCCOc4cc3cc2C#N)c1]	5.66%
Cc1cc(C(=O)COn2nnc3ccc(Cl)cc32)c(C)n1-c1ccc2c(c1)OCO2 [MWAC-0001837, Cc1cc(C(=O)COn2nnc3ccc(Cl)cc23)c(C)n1c4ccc5OCOc5c4]	26%
Cc1ccccc1OCCOc1ccccc1/C=N/n1cnnc1 [MWAC-0001810, Cc1ccccc1OCCOc2ccccc2\C=N\n3cnnc3]	5%
O=C1OC(NC(=O)c2ccccc2)C(NC(=O)c2ccccc2)=C1Cl (centres unmarked) [MWAC-0001833, ClC1=C(NC(=O)c2ccccc2)C(NC(=O)c3ccccc3)OC1=O]	4%
Cc1ccc2c(CC(=O)NCc3ccco3)coc2c1C [MWAC-0001762, Cc1ccc2c(CC(=O)NCc3occc3)coc2c1C]	11%
CC1=C(C(=O)OC(C)C)C(c2ccsc2)C2=C(CC(c3cccs3)CC2=O)N1 (centres unmarked) [MWAC-0001728, CC(C)OC(=O)C1=C(C)NC2=C(C1c3ccsc3)C(=O)CC(C2)c4cccs4]	0%
CSc1cccc(NC(=O)c2cnn3ccccc23)c1 [MWAC-0001883, CSc1cccc(NC(=O)c2cnn3ccccc23)c1]	0%
O=C1NC(=S)NC(=O)C1=Cc1ccccc1OS(=O)(=O)c1ccc2ccccc2c1 [MWAC-0001813, O=C1NC(=S)NC(=O)C1=Cc2ccccc2OS(=O)(=O)c3ccc4ccccc4c3]	4.38%
S=C(c1ccc(-c2cccc(Cl)c2)o1)N1CCCCC1 [MWAC-0001879, Clc1cccc(c1)c2oc(cc2)C(=S)N3CCCCC3]	0%
CC(NC(=O)CCl)C1COc2ccccc2O1 (centres unmarked) [MWAC-0001857, CC(NC(=O)CCl)C1COc2ccccc2O1]	26%
COc1ccc(OC)c(C(=O)c2oc3ccccc3c2NC(=O)CCl)c1 [MWAC-0001832, COc1ccc(OC)c(c1)C(=O)c2oc3ccccc3c2NC(=O)CCl]	85%
COc1cccc(C(=O)NN2C(=S)N(c3ccccc3)C(=O)C2CC(N)=O)c1 (centres unmarked) [MWAC-0001743, COc1cccc(c1)C(=O)NN2C(CC(=O)N)C(=O)N(C2=S)c3ccccc3]	6%
O=C1NC(=S)NC(=O)C1=Cc1cccc(OS(=O)(=O)c2ccc3ccccc3c2)c1 [MWAC-0001766, O=C1NC(=S)NC(=O)C1=Cc2cccc(OS(=O)(=O)c3ccc4ccccc4c3)c2]	15%
CCN1C(=O)C(=O)c2cc(Cl)ccc21 [MWAC-0001750, CCN1C(=O)C(=O)c2cc(Cl)ccc12]	10%
Cc1cc(Br)cc2c1N(C)C(=O)C2(O)CC(=O)c1ccc(Cl)cc1 (centres unmarked) [MWAC-0001785, CN1C(=O)C(O)(CC(=O)c2ccc(Cl)cc2)c3cc(Br)cc(C)c13]	4.25%

Structure (SMILES)	% inhibition (20 µM) biochemical
COc1cccc(NC(=O)Cn2c(=O)n(C)c(=O)n(-c3ccc(Oc4ccc(SC(F)(F)F)cc4)c(C)c3)c2=O)c1 [MWAC-0001087, COc1cccc(NC(=O)CN2C(=O)N(C)C(=O)N(C2=O)c3ccc(Oc4ccc(SC(F)(F)F)cc4)c(C)c3)c1]	3%
Cc1ccc(-c2cn3ccc4ccccc4c3n2)cc1 [MWAC-0001723, Cc1ccc(cc1)c2cn3ccc4ccccc4c3n2]	8%
CCOc1ccc(C2NC(=O)c3[nH]nc(-c4cccc(OC)c4)c32)cc1 (centres unmarked) [MWAC-0001753, CCOc1ccc(cc1)C2NC(=O)c3[nH]nc(c4cccc(OC)c4)c23]	18%
C=CCN1C(=O)C(O)(CC(=O)c2ccc(Cl)s2)c2cc(Br)ccc21 (centres unmarked) [MWAC-0001788, OC1(CC(=O)c2ccc(Cl)s2)C(=O)N(CC=C)c3ccc(Br)cc13]	7.53%
COc1cc(C#N)ccc1OCc1ccc(Cl)cc1 [MWAC-0001772, COc1cc(ccc1OCc2ccc(Cl)cc2)C#N]	0.301%
Cc1c(C(=O)N2CCCCC2C)sc2nc(-c3ccc(F)cc3)cn12 (centres unmarked) [MWAC-0001747, CC1CCCCN1C(=O)c2sc3nc(cn3c2C)c4ccc(F)cc4]	5.44%
Cc1ccc(Cc2cnc(NC(=O)c3cccs3)s2)cc1 [MWAC-0001882, Cc1ccc(Cc2cnc(NC(=O)c3cccs3)s2)cc1]	0%
COc1ccc(CC(=O)NCc2ccccc2Cl)cc1 [MWAC-0001807, COc1ccc(CC(=O)NCc2ccccc2Cl)cc1]	1%
O=C1C(=O)N(Cc2ccc([N+](=O)[O-])cc2)c2ccc(Br)cc21 [MWAC-0001727, [O-][N+](=O)c1ccc(CN2C(=O)C(=O)c3cc(Br)ccc23)cc1]	65%
COc1ccc(C(CNC(=O)CCl)N2CCCCC2)cc1 (centres unmarked) [MWAC-0001849, COc1ccc(cc1)C(CNC(=O)CCl)N2CCCCC2]	33%
Cc1ccc2nc(-c3ccc(SCC(=O)Nc4nc(C)cs4)nc3)[nH]c2c1 [MWAC-0001838, Cc1ccc2nc([nH]c2c1)c3ccc(SCC(=O)Nc4nc(C)cs4)nc3]	2.56%
CCN1C(=O)C(O)(CC(=O)c2ccco2)c2cc(Br)ccc21 (centres unmarked) [MWAC-0001784, CCN1C(=O)C(O)(CC(=O)c2occc2)c3cc(Br)ccc13]	3%
COC(=O)c1c(NC(=O)CCl)sc(C(=O)N2CCOCC2)c1C [MWAC-0001850, COC(=O)c1c(C)c(sc1NC(=O)CCl)C(=O)N2CCOCC2]	74%
CCCCS(=O)(=O)N(O)c1ccc(Cl)cc1 [MWAC-0001856, CCCCS(=O)(=O)N(O)c1ccc(Cl)cc1]	4%
Cc1ccc2nc(NC(=O)c3ccc(S(C)(=O)=O)c([N+](=O)[O-])c3)sc2c1 [MWAC-0001829, Cc1ccc2nc(NC(=O)c3ccc(c(c3)[N+](=O)[O-])S(=O)(=O)C)sc2c1]	64%
CCc1c(C)sc(NC(=O)CCc2ccccc2)c1C(N)=O [MWAC-0001812, CCc1c(C)sc(NC(=O)CCc2ccccc2)c1C(=O)N]	4%
O=C(Nc1ccccc1O)c1ccc(Cl)c([N+](=O)[O-])c1 [MWAC-0001814, Oc1ccccc1NC(=O)c2ccc(Cl)c(c2)[N+](=O)[O-]]	2.59%
CCOC(=O)/C=C(\C)N1N=C(c2ccccc2)CC1c1ccc(N(C)C)cc1 (centres unmarked) [MWAC-0001831, CCOC(=O)\C=C(/C)\N1N=C(CC1c2ccc(cc2)N(C)C)c3ccccc3]	5.67%
O=C1/C(=C/c2ccc3c(c2)OCO3)SC(=S)N1Cc1cccnc1 [MWAC-0001792, O=C1N(Cc2cccnc2)C(=S)S/C/1=C\c3ccc4OCOc4c3]	14%
Cc1ccc(C(NC(=O)CCl)c2cccs2)cc1 (centres unmarked) [MWAC-0001859, Cc1ccc(cc1)C(NC(=O)CCl)c2cccs2]	60%
CCOc1cc(S(=O)(=O)N2c3ccccc3CC2C)ccc1Cl (centres unmarked) [MWAC-0001761, CCOc1cc(ccc1Cl)S(=O)(=O)N2C(C)Cc3ccccc23]	8%
CN1C(=O)C(=Cc2cc(O)ccc2Br)C(=O)N(C)C1=O [MWAC-0001799, CN1C(=O)N(C)C(=O)C(=Cc2cc(O)ccc2Br)C1=O]	5.42%
COc1cccc(-c2cc(C(=O)N3CCCCC3C)no2)c1 (centres unmarked) [MWAC-0001739, COc1cccc(c1)c2onc(c2)C(=O)N3CCCCC3C]	2.35%
CCC(=O)OCC(=O)NCc1ccc2c(c1)OCO2 [MWAC-0001887, CCC(=O)OCC(=O)NCc1ccc2OCOc2c1]	0%
CCc1cc2c3c(c1)C1(C(=O)N3C(C)(C)C=C2C)C(C#N)=C(N)Oc2[nH]c(=O)[nH]c(=O)c21 (centres unmarked) [MWAC-0001786, CCc1cc2C(=CC(C)(C)N3C(=O)C4(C(=C(N)OC5=C4C(=O)NC(=O)N5)C#N)c(c1)c23)C]	4%
Cc1ccccc1-c1noc(-c2ccc(O)cc2)n1 [MWAC-0001749, Cc1ccccc1c2noc(n2)c3ccc(O)cc3]	9%
